Peptide text beside a SMILES is read from it.
How the values were obtained:
white mongrel male mice = experiment: Acute toxicity, Kerber's method, single intramuscular dose
white mongrel rats = details: rat, in vivo

For N[C@@H](CCC(=O)O)C(=O)N[C@@H](Cc1c[nH]c2ccccc12)C(=O)O [L-Glu-L-Trp, L-glutamic-L-tryptophan acid] (H-Glu-Trp-OH; N-terminus and C-terminus assumed), the Acute toxic reactions (white mongrel male mice; doses exceeding the therapeutic dose by several thousand times) was “does not cause acute toxic reactions”, the Death of animals (white mongrel male mice; mice, single i.m. 1, 2, 3, 4, 5 mg/kg, within 72 hours and further 14 days) was “Death of animals did not take place in any of the groups” and the “Side effects from long-term administration” value (white mongrel rats) was “absence of side effects”.
